Data set [1] deals with Escherichia coli. Kind of data set: Antibacterial activity against Escherichia coli assessed as inhibition of microbial growth. Type of data set: functional, organism-based.
Data set [2] is filed under the species Danio rerio. The data set can be described thus: Cytotoxicity in zebrafish embryo assessed as survival rate at 50 ppm after 80 mins relative to control. The format is functional.
The species entered for data set [3] is Danio rerio. Kind of data set: Cytotoxicity in zebrafish embryo assessed as survival rate at 25 ppm after 80 mins relative to control. Type of data set: functional.
Data set [4] is filed under the species Danio rerio. The data set can be described thus: Cytotoxicity in zebrafish embryo assessed as survival rate at 10 ppm after 80 mins relative to control. Type of data set: functional.
Data set [5] can be described thus: Drug accumulation in zebrafish embryo muscle at 10 ppm incubated for 80 mins. The format is ADME, Danio rerio, Muscle tissue. As to conditions: in vivo.
Data set [6] in a line: Drug accumulation in zebrafish embryo skin at 10 ppm incubated for 80 mins. The format is ADME, Danio rerio, Zone of skin. The conditions noted are these: in vivo.
Data set [7] can be described thus: Drug accumulation in zebrafish embryo stomach at 10 ppm incubated for 80 mins. Type of data set: ADME, tissue-based, Danio rerio. The conditions noted are these: in vivo.
Data set [8] is described as follows: Drug accumulation in zebrafish embryo intestinal villi at 10 ppm incubated for 80 mins. Type of data set: ADME, Danio rerio. As to conditions: in vivo.

Molecules are shown by their SMILES. Calls of active or inactive are those of the source. The rule behind the calls is not given here.

As for `O=C1OC(=O)C2C3CCC(O3)C12` (stereo unspecified) [DEMETHYL-CANTHARIDIN], the “growth inhibition (GI)” value in data set [1] is “inactive”. Moreover, the Survival was determined as 90.8% in data set [2], 96.7% in data set [3] and 99.2% in data set [4].
For the compound `COC(=O)[C@H]1[C@@H](C(=O)Oc2ccc(/C=C/c3cc(O)cc(O)c3)cc2)[C@@H]2CC[C@H]1O2`, the values for the Survival in data set [2], in data set [3] and in data set [4] were 95.8%, 99.2% and 99.2%, respectively.
Turning to `CCN(CC)c1ccc2c(-c3ccccc3C(=O)NCCNC(=O)[C@@H]3[C@H](C(=O)OC)[C@H]4CC[C@@H]3O4)c3ccc(=[N+](CC)CC)cc-3oc2c1`, the Drug uptake result is on record as “Not Active” in data set [5], “Not Active” in data set [6], “Active” in data set [7] and “Active” in data set [8].
